Data from ChEMBL document CHEMBL5584343, “Cerastecin Inhibition of the Lipooligosaccharide Transporter MsbA to Combat Acinetobacter baumannii: From Screening Impurity to In Vivo Efficacy” (J Med Chem, 2024).
In brackets after ≈: the same amount, converted by molar mass.

Columns and labels:
Acinetobacter baumannii [1] = experiment: Antibacterial activity against Acinetobacter baumannii ATCC19606 assessed as bacterial growth inhibition incubated for 18 to 20 hrs by microbroth dilution method; type: functional; conditions: time 18-20 hrs
[2] = Inhibition of wildtype Acinetobacter baumannii MsbA preincubated for 30 mins followed by ATP addition and measured after 1 hrs by Transcreener ADP2 F1 assay
Acinetobacter baumannii [3] = experiment: Antibacterial activity against Acinetobacter baumannii ATCC19606 incubated for 18 to 20 hrs in presence of 1% of human serum by microbroth dilution method; type: functional; conditions: time 18-20 hrs
Acinetobacter baumannii [4] = experiment: Selectivity ratio of MIC95 for antibacterial activity against Acinetobacter baumannii ATCC19606 in the presence of 1% human serum to MIC95 for antibacterial activity against Acinetobacter baumannii ATCC19606; type: functional
[5] = Cytotoxicity against GFP fused human MT4 cells cultured under serum free condition for 24 hrs by CellTiter-Glo assay; type: toxicity, cell-based; conditions: GFP fused MT4 cells

MIC95 (Acinetobacter baumannii [1]) | EC50 [2] | MIC95 (Acinetobacter baumannii [3]) | SMILES | Selectivity ratio (Acinetobacter baumannii [4]) | EC50 at 24 h [5]
1.56 µM (≈ 1.18 µg/mL) | 92 nM | 25 µM | CCCCc1ccc(S(=O)(=O)Nc2ccc(NC(=O)CCC(=O)Nc3ccc(NS(=O)(=O)c4ccc(OC)nc4)c(C(=O)O)c3)cc2C(=O)O)cc1 | 16 | –
1.56 µM (≈ 1.17 µg/mL) | 626 nM | 25 µM | CCCCc1ccc(S(=O)(=O)Nc2ccc(NC(=O)CCC(=O)Nc3ccc(NS(=O)(=O)c4ccc(CCCC)cc4)c(C(=O)O)c3)cc2O)cc1 | 16 | –
1.11 µM (≈ 0.877 µg/mL) | 456 nM | 50 µM | CCCCc1ccc(S(=O)(=O)Nc2ccc(NC(=O)CCC(=O)Nc3ccc(N(C)S(=O)(=O)c4ccc(CCCC)cc4)c(C(=O)O)c3)cc2C(=O)O)cc1 | 45 | –
> 200 µM | > 198000 nM | > 200 µM | CCCCc1ccc(S(=O)(=O)Nc2ccc(NC(=O)CCC(=O)Nc3ccc(NS(=O)(=O)c4ccc(CCCC)cc4)c(C(=O)OCC)c3)cc2C(=O)OCC)cc1 | – | –
0.012 µM (≈ 0.0109 µg/mL) | 29 nM | 3.12 µM | O=C(CCCOc1ccc(NS(=O)(=O)c2ccc(Oc3ccc(Cl)cc3)nc2)c(C(=O)O)c1)Nc1ccc(NS(=O)(=O)c2ccc(Oc3ccc(Cl)cc3)nc2)c(C(=O)O)c1 | 260 | 36300 nM
> 200 µM | 1170 nM | > 200 µM | CCCCc1ccc(S(=O)(=O)Nc2ccc(NC(=O)CCC(=O)Nc3ccc(NS(=O)(=O)c4ccc(CCCC)cc4)c(C(=O)O)c3)cc2F)cc1 | – | –
0.391 µM (≈ 0.305 µg/mL) | 124 nM | 12.5 µM | CCCCc1ccc(S(=O)(=O)Nc2ccc(NC(=O)CCC(=O)Nc3ccc(NS(=O)(=O)c4ccc(CCCC)cc4)c(C(=O)O)c3)c(C(=O)O)c2)cc1 | 32 | –
6.25 µM (≈ 4.78 µg/mL) | 1240 nM | > 200 µM | CCCCc1ccc(S(=O)(=O)Nc2ccc(NC(=O)CCC(=O)Nc3ccc(NS(=O)(=O)c4ccc(CCCC)cc4)c(C(=O)O)c3)cc2CO)cc1 | >32 | –
2.21 µM (≈ 1.73 µg/mL) | 82 nM | 25 µM | CCCCc1ccc(S(=O)(=O)Nc2ccc(NC(=O)CCC(=O)Nc3ccc(NS(=O)(=O)c4ccc(CCCC)nc4)c(C(=O)O)c3)cc2C(=O)O)cn1 | 11 | –
0.024 µM (≈ 0.0195 µg/mL) | 3.8 nM | 1.11 µM | Cn1nc(-c2ccccc2)cc1S(=O)(=O)Nc1ccc(NC(=O)CCCOc2ccc(NS(=O)(=O)c3cc(-c4ccccc4)nn3C)c(C(=O)O)c2)cc1C(=O)O | 46 | 700 nM
> 200 µM | 512 nM | > 200 µM | CCCCc1ccc(S(=O)(=O)Nc2ccc(NC(=O)CCC(=O)Nc3ccc(NS(=O)(=O)c4ccc(CCCC)cc4)c(C(N)=O)c3)cc2C(N)=O)cc1 | – | –
0.069 µM (≈ 0.0528 µg/mL) | 16 nM | 6.25 µM | CCCCc1ccc(S(=O)(=O)Nc2ccc(NC(=O)CCCOc3ccc(NS(=O)(=O)c4ccc(CCCC)cc4)c(C(=O)O)c3)cc2C(=O)O)cc1 | 91 | –
> 200 µM | 32400 nM | > 200 µM | CCCCc1ccc(S(=O)(=O)Nc2ccc(NC(=O)CCC(=O)Nc3cccc(C(=O)O)c3)cc2C(=O)O)cc1 | – | –
0.069 µM (≈ 0.0563 µg/mL) | 47 nM | 4.42 µM | CCCCc1ccc(S(=O)(=O)Nc2ccc(NC(=O)CCC(=O)Nc3ccc(NS(=O)(=O)c4ccc(Oc5ccccc5)nc4)c(C(=O)O)c3)cc2C(=O)O)cc1 | 64 | –
> 200 µM | > 198000 nM | > 200 µM | CCCCc1ccc(S(=O)(=O)N(C)c2ccc(NC(=O)CCC(=O)Nc3ccc(N(C)S(=O)(=O)c4ccc(CCCC)cc4)c(C(=O)O)c3)cc2C(=O)O)cc1 | – | –
0.783 µM (≈ 0.588 µg/mL) | 623 nM | 12.5 µM | CCCCc1ccc(S(=O)(=O)Nc2ccc(NCCCCNc3ccc(NS(=O)(=O)c4ccc(CCCC)cc4)c(C(=O)O)c3)cc2C(=O)O)cc1 | 16 | –
0.782 µM (≈ 0.565 µg/mL) | 311 nM | 12.5 µM | CCCCc1ccc(S(=O)(=O)Nc2ccc(NC(=O)CCC(=O)Nc3ccc(NS(=O)(=O)c4ccccc4)c(C(=O)O)c3)cc2C(=O)O)cc1 | 16 | –
0.553 µM (≈ 0.444 µg/mL) | 291 nM | 25 µM | CCCCc1ccc(S(=O)(=O)Nc2ccc(NC(=O)CCC(=O)Nc3ccc(NS(=O)(=O)c4ccc(CCCC)cc4)c(-c4nn[nH]n4)c3)cc2C(=O)O)cc1 | 45 | –
0.781 µM (≈ 0.574 µg/mL) | 790 nM | > 200 µM | CCCCc1ccc(S(=O)(=O)Nc2ccc(NC(=O)CCC(=O)Nc3ccc(NS(=O)(=O)c4ccc(CCCC)cc4)c(C(=O)O)c3)cc2)cc1 | >256 | –
> 200 µM | 1600 nM | > 200 µM | CCCCc1ccc(S(=O)(=O)Nc2ccc(NC(=O)CCC(=O)Nc3ccc(NS(=O)(=O)c4ccc(CCCC)cc4)c(C(=O)O)c3)cc2C#N)cc1 | – | –

MIC95 (Acinetobacter baumannii [1]) | EC50 [2] | MIC95 (Acinetobacter baumannii [3]) | SMILES | Selectivity ratio (Acinetobacter baumannii [4]) | EC50 at 24 h [5]
25 µM (≈ 19.5 µg/mL) | 1790 nM | 200 µM | CCCCc1ccc(S(=O)(=O)Nc2ccc(NC(=O)CCC(=O)Nc3ccc(NS(=O)(=O)c4ccc(CCCC)cn4)c(C(=O)O)c3)cc2C(=O)O)nc1 | 8 | –
> 200 µM | 765 nM | > 200 µM | CCCCc1ccc(S(=O)(=O)Nc2ccc(NC(=O)CCC(=O)Nc3ccc(NS(=O)(=O)c4ccc(CCCC)cc4)c(C(=O)NC)c3)cc2C(=O)O)cc1 | – | –
0.783 µM (≈ 0.61 µg/mL) | 597 nM | 25 µM | CCCCc1ccc(NS(=O)(=O)c2ccc(NC(=O)CCC(=O)Nc3ccc(NS(=O)(=O)c4ccc(CCCC)cc4)c(C(=O)O)c3)cc2C(=O)O)cc1 | 32 | –
0.277 µM (≈ 0.215 µg/mL) | 27 nM | 8.84 µM | CCCCc1ccc(S(=O)(=O)Nc2ccc(NC(=O)/C=C\C(=O)Nc3ccc(NS(=O)(=O)c4ccc(CCCC)cc4)c(C(=O)O)c3)cc2C(=O)O)cc1 | 32 | –
> 200 µM | > 198000 nM | > 200 µM | CCCCc1ccc(S(=O)(=O)Nc2ccc(N(C)C(=O)CCC(=O)N(C)c3ccc(NS(=O)(=O)c4ccc(CCCC)cc4)c(C(=O)O)c3)cc2C(=O)O)cc1 | – | –
0.277 µM (≈ 0.212 µg/mL) | 308 nM | 1.56 µM | CCCCc1ccc(S(=O)(=O)Nc2ccc(CNCCC(=O)Nc3ccc(NS(=O)(=O)c4ccc(CCCC)cc4)c(C(=O)O)c3)cc2C(=O)O)cc1 | 5.6 | –
3.12 µM (≈ 2.34 µg/mL) | > 198000 nM | 25 µM | CCCCc1ccc(S(=O)(=O)Nc2ccc(NC/C=C\CNc3ccc(NS(=O)(=O)c4ccc(CCCC)cc4)c(C(=O)O)c3)cc2C(=O)O)cc1 | 8 | –
> 200 µM | > 198000 nM | > 200 µM | CCCCc1ccc(S(=O)(=O)Nc2ccc(C(=O)NCCNC(=O)c3ccc(NS(=O)(=O)c4ccc(CCCC)cc4)c(C(=O)O)c3)cc2C(=O)O)cc1 | – | –
0.196 µM (≈ 0.167 µg/mL) | 136 nM | 6.25 µM | O=C(CCC(=O)Nc1ccc(NS(=O)(=O)c2ccc(Oc3ccccc3)nc2)c(C(=O)O)c1)Nc1ccc(NS(=O)(=O)c2ccc(Oc3ccccc3)nc2)c(C(=O)O)c1 | 32 | –
0.049 µM (≈ 0.0369 µg/mL) | 5.4 nM | 12.5 µM | CCCCc1ccc(S(=O)(=O)Nc2ccc(OCCCCOc3ccc(NS(=O)(=O)c4ccc(CCCC)cc4)c(C(=O)O)c3)cc2C(=O)O)cc1 | 255 | 9800 nM
1.1 µM (≈ 0.874 µg/mL) | > 22100 nM | > 200 µM | CCCCc1ccc(S(=O)(=O)Nc2ccc(NC(=O)[C@H]3C[C@@H]3C(=O)Nc3ccc(NS(=O)(=O)c4ccc(CCCC)cc4)c(C(=O)O)c3)cc2C(=O)O)cc1 (racemic) | >181 | –
0.112 µM (≈ 0.0872 µg/mL) | 83 nM | 11.3 µM | CCCCc1ccc(S(=O)(=O)Nc2ccc(NC(=O)CCNC(=O)c3ccc(NS(=O)(=O)c4ccc(CCCC)cc4)c(C(=O)O)c3)cc2C(=O)O)cc1 | 101 | –
1.56 µM (≈ 1.27 µg/mL) | 416 nM | 25 µM | CCCCc1ccc(S(=O)(=O)Nc2ccc(NC(=O)CCC(=O)Nc3ccc(NS(=O)(=O)c4ccc(CCCC)cc4)c(P(=O)(O)O)c3)cc2C(=O)O)cc1 | 16 | –
> 200 µM | > 66200 nM | > 200 µM | CCCCc1ccc(S(=O)(=O)Nc2ccc(NC(=O)CCC(=O)Nc3ccc(N)c(C(=O)O)c3)cc2C(=O)O)cc1 | – | –
0.196 µM (≈ 0.155 µg/mL) | 967 nM | 25 µM | CCCCc1ccc(S(=O)(=O)Nc2ccc(NC(=O)CCC(=O)Nc3ccc(NS(=O)(=O)c4ccc(CCCC)cc4)c(C(=O)O)c3)cc2CC(=O)O)cc1 | 128 | –
0.196 µM (≈ 0.153 µg/mL) | 64 nM | 12.5 µM | CCCCc1ccc(S(=O)(=O)Nc2ccc(NC(=O)CCC(=O)Nc3ccc(NS(=O)(=O)c4ccc(CCCC)nc4)c(C(=O)O)c3)cc2C(=O)O)cc1 | 64 | –
100 µM (≈ 66.1 µg/mL) | 6400 nM | 200 µM | CCCCc1ccc(S(=O)(=O)Nc2ccc(NC(=O)CCC(=O)Nc3ccc(NS(C)(=O)=O)c(C(=O)O)c3)cc2C(=O)O)cc1 | 2 | –
0.196 µM (≈ 0.16 µg/mL) | 37 nM | 12.5 µM | CCCCc1ccc(S(=O)(=O)Nc2ccc(NC(=O)CCC(=O)Nc3ccc(NS(=O)(=O)c4ccc(CCCC)cc4)c(S(=O)(=O)O)c3)cc2C(=O)O)cc1 | 64 | –
> 200 µM | > 198000 nM | > 200 µM | CCCCc1ccc(C(=O)Nc2ccc(NC(=O)CCC(=O)Nc3ccc(NS(=O)(=O)c4ccc(CCCC)cc4)c(C(=O)O)c3)cc2C(=O)O)cc1 | – | –
1.56 µM (≈ 1.26 µg/mL) | 188 nM | 25 µM | CCCCc1ccc(S(=O)(=O)Nc2ccc(NC(=O)CCC(=O)Nc3ccc(NS(=O)(=O)c4ccc(N5CCOCC5)nc4)c(C(=O)O)c3)cc2C(=O)O)cc1 | 16 | –
